According to US20080200551A1, “Flourene Derivative” (priority 2004, published 2008):
Structures can show the parent of a compound that is named as a salt.

How the values were obtained:
human 5-HT7 receptor = human 5-HT7 receptor (Homo sapiens, UniProt P34969); assay: Binding test of 5-HT7 receptor; conditions: [3H]5-HT, human 5-HT7 expressing CHO cell membrane
Protocol: (2) Binding Test of 5-HT7 Receptor
(i) Preparation of Membrane Preparation
CHO cell was used as the gene transferring cell.
Cultured CHO cells expressing human 5-HT7 receptor were washed with PBS (−). The cells were scraped in the presence of PBS(−), and the cells were recovered by centrifugation (1,000 rpm, 10 min, 4° C.). They were homogenized using Polytron (PTA 10-TS) in the presence of 5 mM Tris-HCl (pH 7.4) buffer and centrifuged (40,000×g, 10 min, 4° C.). They were suspended using a homogenizer in the presence of 50 mM Tris-HCl (pH 7.4) buffer. They were subjected to centrifugation (40,000×g, 10 min, 4° C.), suspended in 50 mM Tris-HCl (pH 7.4) and stored at −80° C.
(ii) Receptor Binding Test
The compound was dissolved in 100% DMSO and diluted to respective concentrations. Nonspecific binding was defined as the binding quantity in the presence of 10 μM metergoline, and the result of subtracting the nonspecific binding quantity from the total binding quantity was defined as the specific binding quantity. This was mixed with 4 ml of 50 mM Tris-HCl buffer (pH 7.4) and filtered under a reduced pressure using a GF/B glass filter, and the filter was washed (4 ml×3) with the same buffer. The glass filter was soaked in 5 ml of a liquid scintillator (Aquasol-2) and the radioactivity was measured using a liquid scintillation counter.

[1] = system: protein leaked from the dural blood vessel caused by 5-HT; assay: Preventive effect in guinea pig migraine model (leaked protein); assay type: in vivo; conditions: for leakage of the protein: 10 mg/kg or 30 mg/kg of oral administration
Protocol: (4) Preventive Effect in Guinea Pig Migraine Model
In this test system, migraine preventive effect was evaluated by measuring this leaked protein in the presence of a compound to be tested, and this was carried out by partially modifying the method described in Rachel A. Spokes and Vicki C. Middlefell, European Journal of Pharmacology (1995) 281, 75-79.
Hartley male guinea pig (250-350 g) was anesthetized by peritoneal administration (i.p.) of urethane (1.5 g/kg). By applying simple canulation to a saphena, 50 mg/kg of a fluorescent protein (FITC-BSA) was intravenously administered (i.v.) and 5 minutes thereafter, physiological saline or 1 μM of 5-HT was intravenously administered. By carrying out perfusion with physiological saline 15 minutes thereafter, blood was washed out. […] By detaching the skull, dura mater was took out and incubated at 37° C. for 16 hours in an Eppendorf tube in the presence of physiological saline of pH 11. Centrifugation was carried out, and the supernatant was dispensed into a plate. Fluorescence intensity was measured using a fluorescence plate reader (excitation wavelength 485 nm, […] 530 nm). By measuring dura mater weight, fluorescence intensity per mg dural protein was calculated.
Values of the fluorescence intensity measured at the time of the administration of each compound and at the time of no administration are shown in FIG. 1 to FIG. 4. […] The control indicates fluorescence intensity at the time of no addition of 5-HT, namely the reference value.

5-HT6 receptor = 5-HT6 receptor (UniProt P50406); assay: Affinity for other receptors: 5-HT6; assay type: binding
α1 receptor = assay: Affinity for other receptors: α1; assay type: binding
5-HT4 receptor = 5-HT4 receptor (UniProt O70528); assay: Affinity for other receptors: 5-HT4; assay type: binding
5-HT2B receptor = conditions: against 5-HT1A, 5-HT1B, 5-HT2A, 5-HT2C, 5-HT3, 5-HT6, 5-HT7, α1, M1 and D2 receptors; cited from earlier work

Sequence of human 5-HT7 receptor (P34969 1-432 limits assumed): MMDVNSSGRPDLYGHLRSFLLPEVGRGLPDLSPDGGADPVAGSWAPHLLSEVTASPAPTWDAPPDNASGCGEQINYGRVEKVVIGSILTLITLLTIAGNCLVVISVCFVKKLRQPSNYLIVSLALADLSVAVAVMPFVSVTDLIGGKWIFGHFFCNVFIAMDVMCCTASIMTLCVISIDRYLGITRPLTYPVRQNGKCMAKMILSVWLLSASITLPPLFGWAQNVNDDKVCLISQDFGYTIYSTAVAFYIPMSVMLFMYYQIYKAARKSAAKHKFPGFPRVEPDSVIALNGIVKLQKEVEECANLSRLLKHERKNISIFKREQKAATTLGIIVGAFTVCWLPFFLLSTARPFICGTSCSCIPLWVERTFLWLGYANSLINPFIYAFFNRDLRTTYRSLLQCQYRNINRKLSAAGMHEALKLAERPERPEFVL

CC1(O)c2ccccc2-c2ccc(C(=O)N=C(N)N)cc21 (racemic) [Example 56, N-(diaminomethylene)-9-hydroxy-9-methyl-9H-fluorene-2-carboxamide]
Ki (human 5-HT7 receptor): 0.4 to 310 nM

CC1(O)c2cc(C(=O)N=C(N)N)ccc2-c2c(F)cccc21 (racemic) [Example 77, N-(diaminomethylene)-5-fluoro-9-hydroxy-9-methyl-9H-fluorene-2-carboxamide]
Ki (human 5-HT7 receptor): 0.4 to 310 nM

CC1(O)c2ccccc2-c2ccc(C(=O)N=C(N)N)cc21 (single isomer, unassigned) [Example 56a, N-(diaminomethylene)-9-hydroxy-9-methyl-9H-fluorene-2-carboxamide (optically active substance A)]
leakage of the protein [1]: almost completely suppressed leakage of the protein
Ki (human 5-HT7 receptor): 0.4 to 310 nM

NC(N)=NC(=O)c1ccc2c(c1)C1(CCCO1)c1ccccc1-2 (single isomer, unassigned) [Example 60a, N-(diaminomethylene)-4′,5′-dihydro-3′H-spiro[fluorene-9,2′-furan]-2-carboxamide (optically active substance A)]
leakage of the protein [1]: almost completely suppressed leakage of the protein

NC(N)=NC(=O)c1ccc2c(c1)C1(CCCO1)c1ccccc1-2 (single isomer, unassigned) [Example 60b, N-(diaminomethylene)-4′,5′-dihydro-3′H-spiro[fluorene-9,2′-furan]-2-carboxamide (optically active substance B)]
leakage of the protein [1]: almost completely suppressed leakage of the protein

CC1(O)c2cc(C(=O)N=C(N)N)ccc2-c2c(F)cccc21 (single isomer, unassigned) [Example 78a, N-(diaminomethylene)-5-fluoro-9-hydroxy-9-methyl-9H-fluorene-2-carboxamide (optically active substance A)]
Ki (human 5-HT7 receptor): 0.4 to 310 nM

CC1(O)c2cc(C(=O)N=C(N)N)ccc2-c2c(F)cccc21 (single isomer, unassigned) [Example 78b, N-(diaminomethylene)-5-fluoro-9-hydroxy-9-methyl-9H-fluorene-2-carboxamide (optically active substance B)]
leakage of the protein [1]: almost completely suppressed leakage of the protein

Cl.NC(N)=NC(=O)c1ccc2c(c1)C(O)c1ccccc1-2 (stereo not shown) [Example 3, N-(diaminomethylene)-9-hydroxy-9H-fluorene-2-carboxamide hydrochloride]
IC50 (5-HT6 receptor): ≥ 1000 nM
IC50 (α1 receptor): ≥ 1000 nM
IC50 (5-HT4 receptor): ≥ 1000 nM
amount of the leaked protein ([1]; 3 mg/kg of intraperitoneal administration, FIG. 4): almost completely suppressed the amount of leaked protein

CC(C)C1NC(=NC(=O)c2ccc3c(c2)C(O)c2ccccc2-3)NC1=O [Example 8, 9-hydroxy-N-[(2EZ,4S)-4-isopropyl-5-oxoimidazolin-2-ylidene-9H-fluorene-2-carboxamide hydrochloride]
Ki (human 5-HT7 receptor): 0.4 to 310 nM

NC(N)=NC(=O)c1ccc2c(c1)C(O)c1c(Cl)cccc1-2 (stereo not shown) [Example 38, 8-chloro-N-(diaminomethylene)-9-hydroxy-9H-fluorene-2-carboxamide]
Ki (human 5-HT7 receptor): 0.4 to 310 nM

NC(N)=NC(=O)c1ccc2c(c1)C1(SCCS1)c1ccccc1-2 [Example 59]
leakage of the protein [1]: almost completely suppressed leakage of the protein

NC(N)=NC(=O)c1ccc2c(c1)C1(CC1)c1ccccc1-2 [Example 63, N-(diaminomethylene)spiro[cyclopropane-1,9′-fluorene]-2′-carboxamide]
Ki (human 5-HT7 receptor): 0.4 to 310 nM

COC1(C)c2ccccc2-c2ccc(C(=O)N=C(N)N)cc21 (stereo not shown) [Example 71, N-(diaminomethylene)-9-methoxy-9-methyl-9H-fluorene-2-carboxamide]
Ki (human 5-HT7 receptor): 0.4 to 310 nM

CCC1(OC)c2ccccc2-c2ccc(C(=O)N=C(N)N)cc21 (stereo not shown) [Example 72, N-(diaminomethylene)-9-ethyl-9-methoxy-9H-fluorene-2-carboxamide]
Ki (human 5-HT7 receptor): 0.4 to 310 nM

NC(N)=NC(=O)c1ccc2c(c1)C1(SCCS1)c1cccc(F)c1-2 [Example 85]
leakage of the protein [1]: almost completely suppressed leakage of the protein

COC1(C)c2cc(C(=O)N=C(N)N)ccc2-c2c(F)cccc21 (stereo not shown) [Example 87, N-(diaminomethylene)-5-fluoro-9-methoxy-9-methyl-9H-fluorene-2-carboxamide]
Ki (human 5-HT7 receptor): 0.4 to 310 nM

CC(C)c1cc(-c2ccc(F)c3ccccc23)nc(N)n1 [RS-127445, 2-amino-4-(4-fluoronaphth-1-yl)-6-isopropylpyrimidine, reference compound]
5-HT2B receptor selectivity (5-HT2B receptor): 1000 times
amount of the leaked protein ([1]; 3 mg/kg, intraperitoneal, FIG. 1): showed an effect to reduce amount of the leaked protein
amount of the leaked protein versus reference value ([1]; dose increased from 3 mg/kg to 10 mg/kg, intraperitoneal, FIG. 1): did not reduced to the reference value

CC1CCN(CC[C@H]2CCCN2S(=O)(=O)c2cccc(O)c2)CC1 [SB-269970, (R)-3-(2-(2-(4-methylpiperidin-1-yl)ethyl)pyrrolidine-1-sulfonyl)phenol, reference compound]
amount of the leaked protein versus reference value ([1]; dose increased from 3 mg/kg to 30 mg/kg, intraperitoneal, FIG. 2): did not reduced the amount of leaked protein to the reference value
amount of the leaked protein ([1]; from 10 mg/kg, intraperitoneal, FIG. 2): showed the effect
